Results on four molecules are retold here after patent US6919090B2, “Active substance combinations with insecticidal and acaricidal properties” (priority 2000, dated 2005).

Format in all cases: in vivo
Assay [1] has as its system resistant caterpillars of the diamondback moth (Plutella xylostella). Description: Plutella Test (resistant), cabbage leaf dip. The text has this: (§1) The expected action for a given combination of two active compounds can be calculated as follows, using the formula of S. R. Colby, Weeds 15 (1967), 20-22: • If • X is the kill rate, expressed as % of the untreated control, when employing active compound A at an application rate of m g/ha or in a concentration of m ppm, • Y is the kill rate, expressed as % of the untreated control, when employing active compound B at an application rate of n g/ha or in a concentration of n ppm and • E is the kill rate, expressed as % of the untreated control, when employing active compounds A and B at application rates of m and n g/ha or in a concentration of m and n ppm, • then [formula]
(§2) If the actual insecticidal kill rate exceeds the calculated value, the action of the combination is superadditive, i.e. a synergistic effect is present. In this case, the actually observed kill rate must exceed the value calculated using the above formula for the expected kill rate (E).
Plutella Test (Resistant)
To produce a suitable preparation of active compound, 1 part by weight of active compound is mixed with the stated amounts of solvent and emulsifier, and the concentrate is diluted with emulsifier-containing water to the desired concentration.
Cabbage leaves (Brassica oleracea) are treated by being dipped into the preparation of active compound of the desired concentration and are populated with resistant caterpillars of the diamondback moth (Plutella xylostella) while the leaves are still moist.
(§3) After the desired period of time, the kill in % is determined. 100% means that all caterpillars have been killed; 0% means that none of the caterpillars have been killed. The kill rates determined are calculated using Colby's formula.

In assay [2] the test system is caterpillars of the army worm (Spodoptera frugiperda). Description: Spodoptera frugiperda Test, cabbage leaf dip.
From the text: as §1, §2
Spodoptera frugiperda Test
To produce a suitable preparation of active compound, 1 part by weight of active compound is mixed with the stated amounts of solvent and emulsifier, and the concentrate is diluted with emulsifier-containing water to the desired concentration. Cabbage leaves (Brassica oleracea) are treated by being dipped into the preparation of active compound of the desired concentration and are populated with caterpillars of the army worm (Spodoptera frugiperda) while the leaves are still moist.
as §3

The subject of assay [3] is normally sensitive caterpillars of the diamondback moth (Plutella xylostella). Kind of assay: Plutella Test (normally sensitive), cabbage leaf dip.
From the text: as §1, §2
Plutella Test (Normally Sensitive)
To produce a suitable preparation of active compound, 1 part by weight of active compound is mixed with the stated amounts of solvent and emulsifier, and the concentrate is diluted with emulsifier-containing water to the desired concentration. […]
After the desired period of time, the kill in % is determined. […] The kill rates determined are calculated using Colby's formula.

Take `Cc1cc(C)c(C2=C(OC(=O)CC(C)(C)C)C3(CCCC3)OC2=O)c(C)c1` [Ex. I-b-1]: the “Kill rate in % after 7 d” value stood at 35% in assay [1] (100 ppm), 40% in assay [1] (500 ppm) and 0% in assay [2] (100 ppm). The “Kill rate in % after 3 d” value in assay [3] (100 ppm) is listed as 40%.
As for `N#Cc1nn(-c2c(Cl)cc(C(F)(F)F)cc2Cl)c(N)c1[S+]([O-])C(F)(F)F` (stereo not drawn) [Fipronil, fipronil], the “Kill rate in % after 7 d” value in assay [1] (0.032 ppm) came to 40%; in assay [2] (0.8 ppm), 20%.
As to `COC(=O)N(C(=O)N1COC2(C(=O)OC)Cc3cc(Cl)ccc3C2=N1)c1ccc(OC(F)(F)F)cc1` (stereo not drawn) [Indoxacarb, indoxacarb], the “Kill rate in % after 7 d” value in assay [1] (0.16 ppm) amounted to 90%. Further, in assay [3] (0.16 ppm), the “Kill rate in % after 3 d” value was found to be 15%.
In the case of Emamectin-benzoate, in assay [2] (0.16 ppm), the “Kill rate in % after 7 d” value was 55%.
